{
  "source": "patent US12691109B2",
  "about": "“Bifunctional aggregation-induced emission luminogen for monitoring and killing of multidrug-resistant bacteria” (The Hong Kong University of Science and Technology, priority 2018, dated 2026)",
  "key": {"[1]": {"system": "S. epidermidis-infected wounds", "test": "Bacteria-infected full-thickness skin wound model on rats", "assay_type": "in vivo, Wistar rats", "from_the_text": "(§1) FIGS. 26A-D show In vivo evaluation of TriPE-NT in treatment of bacteria-infected wounds on rats. FIG. 26A illustrates the process of establishing bacteria-infected full-thickness skin wound models on rats. […] FIG. 26C is a graph plotting the proportion of the E. coli and MDR E. coli infected wound area on day 3 and day 7 after the injury. FIG. 26D is a graph plotting the proportion of the S. epidermidis and MDR S. epidermidis infected wound area on day 3 and day 7 after the injury (each experiment was repeated at least 5 times).\n(§2) To further evaluate the anti-bacterial activity of TriPE-NT in vivo, the performance of TriPE-NT on bacteria-infected wounds of rats was tested. E. coli-, MDR E. coli-, S. epidermidis or MDR S. epidermidis-infected, full-thickness skin wounds were established on the dorsal skin of the Wistar rats (FIG. 26A). The macroscopic appearance of the healing processes of the wounds was captured at different time points (FIG. 26B).\n(§3) Hematoxylin and eosin (HE) staining was carried out for evaluating the wound healing of the sectioned tissues of the E. coli-, MDR E. coli-, S. epidermidis- and MDR S. epidermidis-infected wounds on the Wistar rats on day 3 and day 7 post-injury (FIG. 28). […] Fibroblasts can secret collagens which accelerate wound reconstruction, that means the TriPE-NT plus light irradiation can promote the wound healing."}, "[2]": {"system": "MDR S. epidermidis-infected wounds", "test": "Bacteria-infected full-thickness skin wound model on rats", "assay_type": "in vivo, Wistar rats", "from_the_text": "as §1, §2, §3"}, "E. coli-infected wounds": {"system": "E. coli-infected wounds", "test": "Bacteria-infected full-thickness skin wound model on rats", "assay_type": "in vivo, Wistar rats", "from_the_text": "as §1, §2, §3"}, "[3]": {"system": "MDR E. coli-infected wounds", "test": "Bacteria-infected full-thickness skin wound model on rats", "assay_type": "in vivo, Wistar rats", "from_the_text": "as §1, §2, §3"}, "MDR E. coli [4]": {"system": "MDR E. coli", "test": "Light-enhanced bacteria killing, plate counting method", "assay_type": "cell-based", "description": "(§4) FIGS. 15C-F are graphs depicting bacteria survival rates for bacteria that were incubated with TriPE-NT (10 μM) for 10 min, the bacteria suspensions (50 μL) were plated on agar plates and treated by white-light illumination (4 mW cm^−2) for 0, 2 and 30 min respectively. FIG. 15C is a graph plotting survival rate versus time of E. coli and MDR E. coli. FIG. 15D is a graph plotting survival rate versus time of K. pneumoniae and MDR K. pneumoniae. FIG. 15E is a graph plotting survival rate versus time of S. epidermidis and MDR S. epidermidis. FIG. 15F is a graph plotting survival rate versus time of S. aureus and MDR S. aureus.\n(§5) The bacteria killing effect of TriPE-NT was evaluated on both wild and clinically isolated MDR bacteria by a traditional plate counting method. First, E. coli and S. epidermidis, as the representative of Gram-negative (G−) and Gram-positive (G+) bacteria, were used to determine the effective bactericidal concentration and illumination time. The bacteria were incubated with TriPE-NT (0, 5, 10 μM) for 0 and 10 min, the bacteria suspensions (50 μL) were plated on agar plates and treated by white-light illumination (4 mW cm^−2) for 2, 10 and 30 min respectively (FIGS. 16A-B). […] Thus, 10 μM TriPE-NT and light irradiation for 2 min or 30 min were set as experimental conditions in the following experiments."}, "S. aureus": {"system": "S. aureus", "test": "Light-enhanced bacteria killing, plate counting method", "assay_type": "cell-based", "description": "as §4, §5"}, "MDR S. epidermidis [5]": {"system": "MDR S. epidermidis", "test": "Light-enhanced bacteria killing, plate counting method", "assay_type": "cell-based", "details": "in darkness, 10 μM TriPE-NT", "description": "as §4, §5"}, "MDR S. aureus": {"system": "MDR S. aureus", "test": "Light-enhanced bacteria killing, plate counting method", "assay_type": "cell-based", "description": "as §4, §5"}, "MDR K. pneumoniae": {"system": "MDR K. pneumoniae", "test": "Light-enhanced bacteria killing, plate counting method", "assay_type": "cell-based", "description": "as §4, §5"}, "K. pneumoniae": {"system": "K. pneumoniae", "test": "Light-enhanced bacteria killing, plate counting method", "assay_type": "cell-based", "description": "as §4, §5"}, "MDR E. coli [6]": {"system": "MDR E. coli", "test": "Morphological changes of bacteria by FE-SEM and FEHR-TEM", "assay_type": "cell-based", "from_the_text": "(§6) FIGS. 24A-E show images of TriPE-NT-induced morphological changes of E. coli, MDR E. coli, S. epidermidis and MDR S. epidermidis with white light irradiation by FE-SEM and FEHR-TEM, bacteria without treatment were set as controls. […] FIG. 24D is a graph plotting elemental curve measured on the super-thin slices of TriPE-NT-treated E. coli from the region marked by the rectangle in FIG. 24C. FIG. 24 E is a graph plotting the elemental curve measured on the super-thin slices of TriPE-NT-treated S. epidermidis from the region marked by rectangle in FIG. 24C.\n(§7) To gain more insights into the TriPE-NT-bacteria interactions, FE-SEM and field-emission high resolution transmission electron microscope (FEHR-TEM) were used to visualize the morphological changes of the bacteria under TriPE-NT treatment, selecting E. coli (G−), MDR E. coli (G−), and S. epidermidis (G+), MDR S. epidermidis (G+) as representatives."}, "E. coli": {"system": "E. coli", "test": "Morphological changes of bacteria by FE-SEM and FEHR-TEM", "assay_type": "cell-based", "from_the_text": "as §6, §7"}, "S. epidermidis": {"system": "S. epidermidis", "test": "Morphological changes of bacteria by FE-SEM and FEHR-TEM", "assay_type": "cell-based", "details": "TriPE-NT without or with light irradiation (4 mW cm^−2, 30 min)", "from_the_text": "as §6, §7"}, "MDR S. epidermidis [7]": {"system": "MDR S. epidermidis", "test": "Morphological changes of bacteria by FE-SEM and FEHR-TEM", "assay_type": "cell-based", "details": "TriPE-NT without or with light irradiation (4 mW cm^−2, 30 min)", "from_the_text": "as §6, §7"}, "[8]": {"system": "human skin fibroblast cells (HAFs)", "test": "Cytotoxicity, CCK-8 kit", "assay_type": "cell-based", "description": "(§8) FIGS. 18A-B are graphs depicting cell viability of human amniotic fluid stem cells (HAFs) and human umbilical vein endothelial cells (HUVECs) after incubation with TriPE-NT at different concentrations of 0, 2, 5, 10 and 20 μM under dark conditions and upon white-light illumination (4 mW cm^−2) for 2 and 30 min.\n(§9) Cytotoxicity of the TriPE-NT was tested because a good antibacterial drug should have the ability to kill only bacteria and have no toxicity to human or animal cells. The biocompatibility of TriPE-NT was evaluated by CCK-8 kit."}, "[9]": {"system": "human umbilical vein endothelial cells (HUVECs)", "test": "Cytotoxicity, CCK-8 kit", "assay_type": "cell-based", "description": "as §8, §9"}, "[10]": {"details": "day 3 post-injury, TriPE-NT plus light vs control"}, "[11]": {"details": "day 3 post-injury, TriPE-NT plus light vs untreated"}, "[12]": {"details": "day 7 post-injury, TriPE-NT plus light (4 mW cm^−2, 30 min) vs control"}, "[13]": {"details": "day 7 post-injury, TriPE-NT plus light vs control"}, "[14]": {"details": "10 μM, white light 4 mW cm^−2, 30 min"}, "[15]": {"details": "TriPE-NT in the absence of white light"}, "[16]": {"details": "TriPE-NT with light irradiation"}, "[17]": {"details": "2, 5, 10 and 20 RM, absence of white light irradiation"}, "[18]": {"details": "white light 4 mW cm^−2, 2 and 30 min"}},
  "note": "Entries after “also recorded” stand apart in the source; their conditions may differ.",
  "data": [
    {"smiles": "COc1ccc(C(=Cc2ccc(-c3ccc4c5c(cccc35)C(=O)N(CCCCn3c[n+](Cc5ccc(F)cc5F)cn3)C4=O)cc2)c2ccc(OC)cc2)cc1", "note": "[TriPE-NT]", "values": [
      {"measurement": "wound size, S. epidermidis-infected wounds", "setting": "[1]; [10]", "result": "no apparent difference"},
      {"measurement": "HE staining of wound tissue, invaded lymphocytes, S. epidermidis-infected wounds", "setting": "[1]; [11]", "result": "reduced the inflammatory reactions"},
      {"measurement": "wound size, S. epidermidis-infected wounds", "setting": "[1]; [12]", "result": "more apparent reduction of wound size"},
      {"measurement": "HE staining of wound tissue, S. epidermidis-infected wounds", "setting": "[1]; [13]", "result": "appearance of fibroblasts and newly formed squamous epithelial layers; also recorded: appearance of hair follicles"},
      {"measurement": "wound size, MDR S. epidermidis-infected wounds", "setting": "[2]; [10]", "result": "no apparent difference"},
      {"measurement": "HE staining of wound tissue, invaded lymphocytes, MDR S. epidermidis-infected wounds", "setting": "[2]; [11]", "result": "reduced the inflammatory reactions"},
      {"measurement": "wound size, MDR S. epidermidis-infected wounds", "setting": "[2]; [12]", "result": "significantly smaller sizes"},
      {"measurement": "HE staining of wound tissue, MDR S. epidermidis-infected wounds", "setting": "[2]; [13]", "result": "appearance of fibroblasts and newly formed squamous epithelial layers"},
      {"measurement": "wound size, E. coli-infected wounds", "setting": "E. coli-infected wounds; [10]", "result": "no apparent difference"},
      {"measurement": "HE staining of wound tissue, invaded lymphocytes, E. coli-infected wounds", "setting": "E. coli-infected wounds; [11]", "result": "reduced the inflammatory reactions"},
      {"measurement": "wound size, E. coli-infected wounds", "setting": "E. coli-infected wounds; [12]", "result": "more apparent reduction of wound size"},
      {"measurement": "wound size, MDR E. coli-infected wounds", "setting": "[3]; [10]", "result": "no apparent difference"},
      {"measurement": "HE staining of wound tissue, invaded lymphocytes, MDR E. coli-infected wounds", "setting": "[3]; [11]", "result": "reduced the inflammatory reactions"},
      {"measurement": "wound size, MDR E. coli-infected wounds", "setting": "[3]; [12]", "result": "significantly smaller"},
      {"measurement": "MDR E. coli killed", "setting": "MDR E. coli [4]; [14]", "result": "more than 96%"},
      {"measurement": "survival rate of MDR E. coli", "setting": "MDR E. coli [4]; in darkness, 10 μM TriPE-NT", "result": "~14.1±1.4", "unit": "%"},
      {"measurement": "S. aureus killed", "setting": "S. aureus; [14]", "result": "> 98", "unit": "%"},
      {"measurement": "survival rate of S. aureus", "setting": "S. aureus; in darkness, 10 μM TriPE-NT", "result": "~8.9±1.1", "unit": "%"},
      {"measurement": "killing of MDR S. epidermidis", "setting": "MDR S. epidermidis [5]", "result": "killed nearly all"},
      {"measurement": "MDR S. aureus killed", "setting": "MDR S. aureus; [14]", "result": "> 97", "unit": "%"},
      {"measurement": "survival rate of MDR S. aureus", "setting": "MDR S. aureus; in darkness, 10 μM TriPE-NT", "result": "~22.4±1.9", "unit": "%"},
      {"measurement": "MDR K. pneumoniae killed", "setting": "MDR K. pneumoniae; [14]", "result": "> 61", "unit": "%"},
      {"measurement": "survival rate of MDR K. pneumoniae", "setting": "MDR K. pneumoniae; in darkness, 10 μM TriPE-NT", "result": "~74.4±3.7", "unit": "%"},
      {"measurement": "K. pneumoniae killed", "setting": "K. pneumoniae; [14]", "result": "> 90", "unit": "%"},
      {"measurement": "survival rate of K. pneumoniae", "setting": "K. pneumoniae; in darkness, 10 μM TriPE-NT", "result": "~59.9±6.5", "unit": "%"},
      {"measurement": "morphology of MDR E. coli", "setting": "MDR E. coli [6]; [15]", "result": "obvious rough surface and damaged cell wall"},
      {"measurement": "morphology of MDR E. coli", "setting": "MDR E. coli [6]; [16]", "result": "cell wall fragmentations"},
      {"measurement": "morphology of E. coli", "setting": "E. coli; [15]", "result": "obvious rough surface and damaged cell wall"},
      {"measurement": "morphology of E. coli", "setting": "E. coli; [16]", "result": "cell wall fragmentations"},
      {"measurement": "morphology of S. epidermidis", "setting": "S. epidermidis", "result": "wrinkled bacterial cell wall"},
      {"measurement": "morphology of MDR S. epidermidis", "setting": "MDR S. epidermidis [7]", "result": "wrinkled bacterial cell wall"},
      {"measurement": "cell viability of HAFs", "setting": "[8]; [17]", "result": "not significantly changed"},
      {"measurement": "cytotoxicity to HAFs with increase of irradiation time", "setting": "[8]; [18]", "result": "no obvious cytotoxicity"},
      {"measurement": "cell viability of HUVECs", "setting": "[9]; [17]", "result": "not significantly changed"},
      {"measurement": "cytotoxicity to HUVECs with increase of irradiation time", "setting": "[9]; [18]", "result": "no obvious cytotoxicity"}
    ]}
  ]
}
